Like-named read-outs stand apart in the source and are kept apart here.

The nature of series [1]: Solubility of elemenes in water. It is filed as physicochemical. The note with it: found by the inventor.
The subject of a further series is cerebral carcinoma. The note with it: combination of the elemene and local chemotherapy; cited from earlier work.
The subject of series [2] is promyelocytic leukemia HL 60 cells. The note with it: cited from earlier work.
Series [3] deals with erythroleukemia K562 cells. The following applies: cited from earlier work.
Series [4] concerns peripheral blood leukocytes (PBL). The following applies: cited from earlier work.
The test system of series [5] is human leukemia K562 cells. The following applies: cited from earlier work.
The conditions of series [6]: background statement; cited from earlier work.
Series [7] has as its system brain tumors (neuroglioma), liver and esophageal cancers. The note with it: 2 year clinical trial in China; cited from earlier work.
The subject of series [8] is murine Ehrlich ascites carcinoma. The note with it: cited from earlier work.
Series [9] concerns rat ascitic reticulum cell sarcoma. The following applies: material contained beta-elemene 65%; cited from earlier work.
In a further series the test system is K562 leukemia cells. The note with it: cited from earlier work.

Take elemene: the solubility in water entry in series [1] was “some solubility in water”; in series [6], “insoluble in water”. In addition, the “patients reaching complete remission level” value in the series with cerebral carcinoma is given as 27%. For the same compound, the “in vitro IC50” value in series [2] is 27.5 µg/mL; in series [3], 81 µg/mL; in [4] it was 254.3 µg/mL. Also, the “apoptosis of K562 cells” value in [5] is “induces apoptosis”. In addition, in series [5], the “bcl-2 protein expression in K562 cells” value was “down-regulation of bcl-2 protein”. For the same compound, in [7], the clinical effect entry was “beneficial effects on brain tumors (neuroglioma), liver and esophageal cancers”.
Turning to `C=CC1(C)CCC(C(=C)C)CC1C(=C)C` (stereo not drawn) [beta-elemene, 1-methyl-1-vinyl-2,4-diisoprotenyl-cyclohexane], the anti-tumor activity result is reported as “marked anti-tumor activity” in series [8] (murine Ehrlich ascites carcinoma, material contained beta-elemene 65%) and “marked anti-tumor activity” in series [9]. In addition, the “side effects during treatment” value in series [8] (murine and rat tumor models) is “Diarrhea and weight loss”. Moreover, the “apoptosis of K562 leukemia cells” value in the series on K562 leukemia cells is listed as “induces apoptosis”.

Source of the values: US20050186230A1, “Elemene compositions containing liquid oil” (SD Pharmaceuticals, Inc., priority 2004, published 2005).
